Drawing on BindingDB's records for doi:10.1021/jm00034a005 (University of Paris, 1994), this text covers IC50 for 10 molecules.

As a reminder, the IC50 is the concentration at which inhibition is half-maximal.

This assay deals with Neprilysin. The assay can be described thus: In vivo inhibitory potency against neutral endopeptidase by displacement of [3H]HACBOGly binding in mouse kidney. (In a radioligand displacement assay an active substance lowers the binding of a labelled ligand.)
Consider `CC(c1ccc(F)cc1)C(CS)C(=O)NC(Cc1ccc(O)cc1)C(=O)O` (stereo not given) [2-[3-(4-Fluoro-phenyl)-2-mercaptomethyl-butyrylamino]-3-(4-hydroxy-phenyl)-propionic acid], for which the half-maximal inhibitory concentration (IC50) was determined as 5.9 nM.

`CC(c1ccccc1)C(CS)C(=O)NC(COCc1ccccc1)C(=O)O` (stereo not given) [3-Benzyloxy-2-(2-mercaptomethyl-3-phenyl-butyrylamino)-propionic acid] returned an IC50 of 4 nM.

In turn, `CC(NC(=O)C(CS)C(C)c1ccc(F)cc1)C(=O)O` (stereo not given) [2-[3-(4-Fluoro-phenyl)-2-mercaptomethyl-butyrylamino]-propionic acid] returned an IC50 of 2 nM. Compared with the last molecule, the IC50 is about 2-fold lower.

In the case of `CC(c1ccc(N)cc1)C(CS)C(=O)NC(Cc1ccc(O)cc1)C(=O)O` (stereo not given) [2-[3-(4-Amino-phenyl)-2-mercaptomethyl-butyrylamino]-3-(4-hydroxy-phenyl)-propionic acid], the half-inhibitory concentration (IC50) amounted to 16 nM.

In the case of `CC(NC(=O)C(CS)C(C)c1ccc2c(c1)OCO2)C(=O)O` (stereo not given) [2-(3-Benzo[1,3]dioxol-5-yl-2-mercaptomethyl-butyrylamino)-propionic acid], the IC50 was 2 nM.

Consider `CC(c1ccc(O)cc1)C(CS)C(=O)NC(Cc1ccc(O)cc1)C(=O)O` (stereo not given) [3-(4-Hydroxy-phenyl)-2-[3-(4-hydroxy-phenyl)-2-mercaptomethyl-butyrylamino]-propionic acid], for which the IC50 came to 9 nM. Against the preceding molecule, the IC50 is about 4.5-fold higher.

For the molecule `CC(c1ccc(F)c(F)c1)C(CS)C(=O)NC(Cc1ccc(O)cc1)C(=O)O` (stereo not given) [2-[3-(3,4-Difluoro-phenyl)-2-mercaptomethyl-butyrylamino]-3-(4-hydroxy-phenyl)-propionic acid], the IC50 was 5.2 nM.

`CC(NC(=O)C(CS)C(C)c1ccc(F)c(F)c1)C(=O)O` (stereo not given) [2-[3-(3,4-Difluoro-phenyl)-2-mercaptomethyl-butyrylamino]-propionic acid] yielded a half-maximal inhibitory concentration (IC50) of 3.5 nM.

`CCC(NC(=O)C(CS)C(C)c1ccccc1)C(=O)O` (stereo not given) [2-(2-Mercaptomethyl-3-phenyl-butyrylamino)-butyric acid] returned a half-inhibitory concentration (IC50) of 6.3 nM. Compared with the last molecule, the IC50 is about 1.8-fold higher.

Regarding `O=C(NC(Cc1ccc(O)cc1)C(=O)O)C(CS)Cc1ccccc1` (stereo not given) [3-(4-Hydroxy-phenyl)-2-(2-mercaptomethyl-3-phenyl-propionylamino)-propionic acid], the concentration for half-maximal inhibition (IC50) was 2 nM.
